Data from PMC10699557, “A recombinant approach for stapled peptide discovery yields inhibitors of the RAD51 recombinase” (Chemical Science, 2023).
Numbered stars: 1 amine (or outer) side, 2 acyl side, 3 side chain; on linkers, the order of the positions; unused ones are H or OH. Bridge positions count the residues as written; N and C are the ends. Peptide text beside a SMILES is read from it. X1 = Nc1nc(CC[*:1])cc(CC[*:2])n1

Assays:
[1] = system: RAD51:dT60 nucleoprotein filament (full-length human RAD51); assay: Electrophoretic mobility shift assay (EMSA) of nucleoprotein filament disruption; type: biochemical; conditions: 5 μM full-length human RAD51, 100 nM FAM-dT60, varying peptide concentrations; 50 mM HEPES pH 7.4, 1 mM ATP
Procedure: We evaluated the effect of stapled peptides SP2, SP24 and SP30 on the nucleoprotein filament using electrophoretic mobility shift assay (EMSA, Fig. 3D). A fluorescently labelled dT60 oligonucleotide was incubated with full-length RAD51, after which the peptides were added at different concentrations before separating the products on a polyacrylamide gel.
(§1) Isothermal titration calorimetry
(§2) Peptides were resuspended in MilliQ water to 10 times the desired final concentration.
This was then diluted 10x with the ITC buffer to obtain the final titrant solution (20 mM CHES pH 9.5, 150 mM NaCl, 0.1% Tween-20). HumRadA22 was buffer-exchanged on a NAP-5 desalting column (Cytiva) into ITC buffer and protein concentration was adjusted to 10:9 of the desired final value. One ninth volume of MilliQ water was added to the solution to bring the protein concentration to the desired final value, while maintaining identical buffer:MilliQ volume proportions in both the syringe and the cell. ITC was carried out using a Microcal ITC200 or Malvern PEAQ ITC instruments at 25°C with a 5.00 μCal reference power DP value, stirring speed of 500-750 rpm, 2 sec filter period. Injection spacing, speed and volume, cell/syringe concentrations as well as the number of injections were adjusted for each peptide and its binding properties. ITC data were fitted using a single-site binding model using the Microcal ITC data analysis program in the Origin 7.0 package. Data points affected by baseline spikes were omitted from the analysis.
Circular dichroism spectroscopy
(§3) Dried peptides were dissolved in MilliQ water to 0.3 mg/ml, and then two-fold diluted in 20 mM sodium phosphate, pH 7.4, giving a final solution of 0.15 mg/ml peptide in 10 mM sodium phosphate. CD spectra of selected peptides were recorded on an AVIV 410 circular dichroism spectropolarimeter using a 1 mm path length quartz cuvette. […]
(§4) The ability of linear and stapled BRC repeat peptides to dissociate RAD51-ssDNA nucleofilament was evaluated using an electrophoretic mobility shift assay (EMSA). […]

HumRadA22 = HumRadA22 (Pyrococcus furiosus, UniProt O74036); assay: Isothermal titration calorimetry (ITC) of peptide binding; design: species or system archaeal RadA mutant with human Rad51 surface residues; conditions: Fig. S3; stapled Arg9-fused peptide
Procedure: We then evaluated the binding of free peptides to HumRadA22 using FP competition assay and isothermal titration calorimetry (Table 1 and Fig. 3B and C). […] All three peptides SP2, SP24 and SP30 bound with similar low-nanomolar affinities in ITC, and the binding appears to be slightly weaker relative to the linear BRC8-2 template (Fig. 3C).
as §1, §2
This was then diluted 10x with the ITC buffer to obtain the final titrant solution (20 mM CHES pH 9.5, 150 mM NaCl, 0.1% Tween-20). HumRadA22 was buffer-exchanged on a NAP-5 desalting column (Cytiva) into ITC buffer and protein concentration was adjusted to 10:9 of the desired final value. […]
as §3, §4

| SMILES | Depolymerisation of RAD51 from single-stranded DNA (EMSA) [1] | Binding affinity towards HumRadA22 by ITC (in words) (HumRadA22) |
| --- | --- | --- |
| CC(C)C[C@@H]1NC(=O)[C@H](CCCCN)NC(=O)[C@H](CCCCN)NC(=O)CNC(=O)[C@H](CO)NC(=O)[C@H](C)NC(=O)[C@H]([C@@H](C)O)NC(=O)[C@H](CO)NC(=O)[C@H](Cc2ccccc2)NC(=O)CNC(=O)[C@H](CO)NC(=O)[C@@H](NC(=O)CN)CSCCc2cc(nc(N)n2)CCSC[C@@H](C(=O)N[C@@H](CCC(N)=O)C(=O)N[C@@H](CCCCN)C(=O)N[C@@H](C)C(=O)N[C@H](C(=O)N[C@@H](CCCCN)C(=O)N[C@@H](CC(C)C)C(=O)N[C@@H](Cc2ccccc2)C(=O)N[C@@H](CO)C(=O)NCC(=O)O)C(C)C)NC(=O)[C@H](C)NC(=O)[C@H](CCC(N)=O)NC(=O)[C@H]([C@@H](C)O)NC(=O)[C@H](CO)NC(=O)[C@H](C(C)C)NC(=O)[C@H](CC(N)=O)NC1=O [SP30] (H-GCSGFSTASGKKLNVSTQACQKAVKLFSG-OH; linker 2-20 via X1) | depolymerise RAD51 from single-stranded DNA to similar extent | – |
| CC(C)C[C@@H]1NC(=O)[C@H](CCCCN)NC(=O)[C@H](CCCCN)NC(=O)CNC(=O)[C@H](CO)NC(=O)[C@H](C)NC(=O)[C@H]([C@@H](C)O)NC(=O)[C@H](CO)NC(=O)[C@H](Cc2ccccc2)NC(=O)CNC(=O)[C@H](CO)NC(=O)[C@@H](NC(=O)CNC(=O)CNC(=O)[C@H](CCCNC(=N)N)NC(=O)[C@H](CCCNC(=N)N)NC(=O)[C@H](CCCNC(=N)N)NC(=O)[C@H](CCCNC(=N)N)NC(=O)[C@H](CCCNC(=N)N)NC(=O)[C@H](CCCNC(=N)N)NC(=O)[C@H](CCCNC(=N)N)NC(=O)[C@H](CCCNC(=N)N)NC(=O)[C@H](CCCNC(=N)N)NC(=O)CN)CSCCc2cc(nc(N)n2)CCSC[C@@H](C(=O)N[C@@H](CCC(N)=O)C(=O)N[C@@H](CCCCN)C(=O)N[C@@H](C)C(=O)N[C@H](C(=O)N[C@@H](CCCCN)C(=O)N[C@@H](CC(C)C)C(=O)N[C@@H](Cc2ccccc2)C(=O)N[C@@H](CO)C(=O)NCC(=O)O)C(C)C)NC(=O)[C@H](C)NC(=O)[C@H](CCC(N)=O)NC(=O)[C@H]([C@@H](C)O)NC(=O)[C@H](CO)NC(=O)[C@H](C(C)C)NC(=O)[C@H](CC(N)=O)NC1=O [SP31] (H-GRRRRRRRRRGGCSGFSTASGKKLNVSTQACQKAVKLFSG-OH; linker 13-31 via X1) | – | high affinity |
